In US5227488A, “Aza spiro decane and use thereof in treating CNS disorders” (Novo Nordisk A/S, priority 1989, dated 1993):
Structures can show the parent of a compound that is named as a salt.

What was measured:
5-HT2 = biological target: T1, 5-HT2 (Rattus norvegicus, UniProt P14842); assay: Receptor binding in vitro, 5-HT2 (3H-ketanserin displacement)
T1 construct: from tissue; host or cells: rat brain: frontal cortex, striatum
Procedure: (§1) Compounds of the general formula (I) were tested for binding to 5-HT receptors and compared with known ligands by the following procedure:
(§2) Rat brain tissue (as specified in the table hereinafter) was homogenized using a Polytron homogenizer. The final pellet was resuspended in 125 vol (tissue wet weight) of buffer.
(§3) In all assays incubation was carried out for 10 min at 37° C.
(§4) Detailed conditions for the receptor binding assay in vitro are tabulated below.

5-HT1B = biological target: T2, 5-HT1B (Rattus norvegicus, UniProt P28564); assay: Receptor binding in vitro, 5-HT1B (3H-5-HT displacement, with 50 nM 8-OH-DPAT)
T2 construct: from tissue; host or cells: rat brain: frontal cortex, hippocampus
Procedure: as §1, §2, §3
Labelling of the 5-HT1B receptor was complicated by the fact that the available ligand ^3 H-5-HT is nonselective.
as §4

5-HT1A = biological target: T3, 5-HT1A (Rattus norvegicus, UniProt P19327); assay: Receptor binding in vitro, 5-HT1A (3H-8OH-DPAT displacement); settings: ligand 3H-8OH-DPAT 2 nM; rat frontal cortex, hippocampus
T3 construct: from tissue; host or cells: rat brain: frontal cortex, hippocampus
T3 sequence (P19327 1-422): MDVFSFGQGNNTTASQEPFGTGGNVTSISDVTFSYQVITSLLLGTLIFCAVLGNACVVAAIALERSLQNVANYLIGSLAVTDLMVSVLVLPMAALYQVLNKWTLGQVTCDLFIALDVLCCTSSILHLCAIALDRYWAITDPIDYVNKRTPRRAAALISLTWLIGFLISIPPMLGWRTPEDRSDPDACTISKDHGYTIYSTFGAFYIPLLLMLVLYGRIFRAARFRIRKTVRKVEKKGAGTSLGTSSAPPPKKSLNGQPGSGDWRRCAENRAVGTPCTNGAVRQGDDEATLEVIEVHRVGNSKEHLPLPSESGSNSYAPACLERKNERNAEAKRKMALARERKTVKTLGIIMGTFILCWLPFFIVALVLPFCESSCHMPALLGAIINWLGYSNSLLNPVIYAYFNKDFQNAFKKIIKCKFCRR
Procedure: as §1, §2, §3, §4

Adenylatcyclase = assay: Adenylatcyclase; assay type: biochemical
5-HT2 receptor subtype = settings: background; cited from earlier work
5-HT1 recognition sites = settings: background; Ann. Reports Med. Chem. 21 (1986), 42-43; cited from earlier work
5-HT1A receptors = settings: background; cited from earlier work

T1 sequence (P14842 whole entry): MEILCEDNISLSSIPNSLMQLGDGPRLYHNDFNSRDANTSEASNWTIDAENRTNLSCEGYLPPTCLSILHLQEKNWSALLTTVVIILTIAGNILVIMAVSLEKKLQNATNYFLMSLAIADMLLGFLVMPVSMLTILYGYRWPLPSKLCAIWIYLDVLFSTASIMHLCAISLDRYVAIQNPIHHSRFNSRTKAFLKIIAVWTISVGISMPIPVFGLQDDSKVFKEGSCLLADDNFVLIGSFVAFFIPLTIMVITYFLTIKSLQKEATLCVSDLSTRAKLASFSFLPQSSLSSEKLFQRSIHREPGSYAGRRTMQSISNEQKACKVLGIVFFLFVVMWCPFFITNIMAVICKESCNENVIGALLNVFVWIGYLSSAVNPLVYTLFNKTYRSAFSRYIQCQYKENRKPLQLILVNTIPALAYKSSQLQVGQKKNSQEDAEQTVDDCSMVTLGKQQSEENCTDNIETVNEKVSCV
T2 sequence (P28564 whole entry): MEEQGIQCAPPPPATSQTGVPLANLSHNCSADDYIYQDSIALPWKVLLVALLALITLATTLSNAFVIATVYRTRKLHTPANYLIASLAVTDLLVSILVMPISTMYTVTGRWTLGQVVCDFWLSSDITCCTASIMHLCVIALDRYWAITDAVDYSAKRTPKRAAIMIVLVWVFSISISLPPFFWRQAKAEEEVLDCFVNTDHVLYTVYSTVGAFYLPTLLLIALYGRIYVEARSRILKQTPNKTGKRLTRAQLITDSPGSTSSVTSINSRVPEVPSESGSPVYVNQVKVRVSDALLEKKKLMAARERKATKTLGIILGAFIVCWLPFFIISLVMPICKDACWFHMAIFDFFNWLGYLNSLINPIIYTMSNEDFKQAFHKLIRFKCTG

SMILES	IC50 (5-HT2) [nM]	IC50 (5-HT1B) [nM]	IC50 (5-HT1A) [nM]	IC50 (Adenylatcyclase) [nM]	affinity for the 5-HT2 receptor subtype (in words) (5-HT2 receptor subtype)	affinity for 5-HT1 recognition sites (in words) (5-HT1 recognition sites)	discrimination between the 5-HT1A and 5-HT1B receptor subtypes (in words) (5-HT1 recognition sites)	affinity for 5-HT1A receptors (in words) (5-HT1A receptors)
O=C(c1ccc(F)cc1)C1CCN(CCn2c(=O)[nH]c3ccccc3c2=O)CC1 [ketanserin]					high affinity			
CC1(C)CC(=O)N(CCCCN2CCN(c3ncccn3)CC2)C(=O)C1 [gepirone, reference compound]	> 1000			1000				
COc1ccc2[nH]cc(OCCNCCCCN3C(=O)C4C5C=CC(C6C=CC65)C4C3=O)c2c1 (stereo not drawn) [Example 24, 1-(4-(1,3-Dioxo-4,7-etheno-1,3,3a,4,4a,6a,7,7a-octahydro-2H-cyclobut[f]isoindol-2-yl)butyl-1-amino)-2-(5-methoxy-3-indolyloxy)-ethane, oxalate]	> 1000	> 1000	6.9	4				
O=C1CC2(CCCC2)CC(=O)N1CCCCN1CCN(c2ncccn2)CC1 [buspirone, reference compound]				125				
COc1ccc2[nH]cc(SCCNCCCCN3C(=O)C4CC=CCC4C3=O)c2c1 (stereo not drawn) [Example 12, 1-(4-(Cis-4-cyclohexen-1,2-dicarboximido)butyl-1-amino)-2-(5-methoxy-3-indolylthio)-ethane, oxalate]	> 1000	> 1000	17	240				
COc1ccc2[nH]cc(SCCNCCCCN3C(=O)C4C5C=CC(C6CC56)C4C3=O)c2c1 (stereo not drawn) [Example 10]	> 1000	> 1000	8	23				
COc1ccc2[nH]cc(C3=CCNCC3)c2c1 [RU 24969]						high affinity	only limited capacity to discriminate	
CCCN(CCC)C1CCc2cccc(O)c2C1 (stereo not drawn) [Example 8-OH-DPAT, 8-hydroxy-2-(di-n-propylamino)tetralin, reference compound]	> 1000			80				binds with high affinity
O=C1c2ccccc2S(=O)(=O)N1CCCCN1CCN(c2ncccn2)CC1 [ipsapirone, reference compound]	> 1000	> 1000	25	850				

Now from value to compound, other results behind:

IC50 (5-HT2) [nM]	IC50 (5-HT1B) [nM]	IC50 (5-HT1A) [nM]	IC50 (Adenylatcyclase) [nM]	SMILES	affinity for the 5-HT2 receptor subtype (in words) (5-HT2 receptor subtype)	affinity for 5-HT1 recognition sites (in words) (5-HT1 recognition sites)	discrimination between the 5-HT1A and 5-HT1B receptor subtypes (in words) (5-HT1 recognition sites)	affinity for 5-HT1A receptors (in words) (5-HT1A receptors)
> 1000	> 1000	34	20	O=C1c2ccccc2S(=O)(=O)N1CCCCNCCSc1c[nH]c2ccccc12 [Example 6, 1-(4-(o-Sulfobenzimido)butyl-1-amino)-2-(3-indolylthio)ethane, oxalate]				
> 1000	156	20	140	COc1ccc2[nH]cc(SCCNCCCCN3C(=O)c4ccccc4C3=O)c2c1 [Example 9, 1-(4-Phthalimidobutyl-1-amino)-2-(5-methoxy-3-indolylthio)-ethane, oxalate]				
> 1000	> 1000	33	30	COc1ccc2[nH]cc(SCCNCCCCN3C(=O)CC4(CCCC4)CC3=O)c2c1 [Example 8, 1-(4-(7,9-Dioxo-8-azaspiro[4,5]decan-8-yl)butyl-1-amino)-2-(5-methoxy-3-indolylthio)-ethane, oxalate]				
> 1000	> 1000	0.6	1.8	COc1ccc2[nH]cc(OCCNCCCCN3C(=O)CC4(CCCC4)CC3=O)c2c1 [Example 23, 1-(4-(7,9-Dioxo-8-azaspiro[4,5]decan-8-yl)butyl-1-amino)-2-(5-methoxy-3-indolyloxy)-ethane, oxalate]				
613	233	40	10	O=C1CC2(CCCC2)CC(=O)N1CCCCNCCSc1c[nH]c2ccccc12 [Example 3, 1-(4-(7,9-Dioxo-8-azaspiro[4,5]decan-8-yl)butyl-1-amino)2-(3-indolylthio)-ethane, oxalate]				
